Measurements from the supplement of paper PMC10307832.

How the values were obtained:
Test in all cases: relative viability (nuclei count vs DMSO), 5 days (fraction); higher = more cells survive
Carfilzomib + Olaparib = compound: CC(C)C[C@H](NC(=O)[C@H](CCc1ccccc1)NC(=O)CN1CCOCC1)C(=O)N[C@@H](Cc1ccccc1)C(=O)N[C@@H](CC(C)C)C(=O)[C@@]1(C)CO1 [Carfilzomib] + O=C(c1cc(Cc2n[nH]c(=O)c3ccccc23)ccc1F)N1CCN(C(=O)C2CC2)CC1 [Olaparib] (partner 8 µM)
Outline: (§1)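 Cells from lung cancer lines were seeded into 1536-well plates and, one day later, dosed by pin tool. Treatments were either a single drug or a fixed dose of an anchor drug with five library-drug doses (not always all listed) in √10 steps. After 5 days, nuclei were stained in a one-step fixation (final 0.05% Triton X-100, 1% formaldehyde, 1 ug/ml Hoechst) and counted on 4× images, and relative viability is the treated-to-vehicle nuclei ratio, as the median of duplicate plates.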

Crizotinib + Palbociclib = compound: C[C@@H](Oc1cc(-c2cnn(C3CCNCC3)c2)cnc1N)c1c(Cl)ccc(F)c1Cl [Crizotinib] + CC(=O)c1c(C)c2cnc(Nc3ccc(N4CCNCC4)cn3)nc2n(C2CCCC2)c1=O [Palbociclib] (partner 0.5 µM)
Outline: as §1

Olaparib = compound: O=C(c1cc(Cc2n[nH]c(=O)c3ccccc23)ccc1F)N1CCN(C(=O)C2CC2)CC1 [Olaparib]
Outline: (§2)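 Viability was read as treated-well nuclei divided by vehicle-well nuclei, using the median across plates. Lung cancer cell lines in 1536-well plates were kept overnight at 37 °C, pinned with five √10-spaced library-drug doses, and after 5 days were Hoechst-stained, imaged at 4× and counted in MetaXpress. Plates passed only with control CV below 25% and at least one doubling.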

Crizotinib = compound: C[C@@H](Oc1cc(-c2cnn(C3CCNCC3)c2)cnc1N)c1c(Cl)ccc(F)c1Cl [Crizotinib]
Outline: as §2

Carfilzomib = compound: CC(C)C[C@H](NC(=O)[C@H](CCc1ccccc1)NC(=O)CN1CCOCC1)C(=O)N[C@@H](Cc1ccccc1)C(=O)N[C@@H](CC(C)C)C(=O)[C@@]1(C)CO1 [Carfilzomib]
Outline: as §2

Cell Line NCI-H1793 has a relative viability (Carfilzomib + Olaparib; first compound 0.001 µM) of 0.811, a relative viability (Carfilzomib + Olaparib; first compound 0.003162 µM) of 1.05 and a relative viability (Carfilzomib + Olaparib; first compound 0.01 µM) of 0.924. For the same cell line, the relative viability (Carfilzomib + Olaparib; first compound 0.03162 µM) was 0.732, the relative viability (Carfilzomib + Olaparib; first compound 0.1 µM) was 0.223 and the relative viability (Crizotinib + Palbociclib; first compound 0.03162 µM) was 0.339. The relative viability (Crizotinib + Palbociclib; first compound 0.1 µM) was 0.311, the relative viability (Crizotinib + Palbociclib; first compound 1 µM) was 0.277 and the relative viability (Olaparib; 0.08 µM) was 0.93. The relative viability (Olaparib; 0.253 µM) was 0.856, the relative viability (Olaparib; 2.53 µM) was 0.824 and the relative viability (Olaparib; 8 µM) was 0.776. It also gave a relative viability (Olaparib; 8 µM, anchor plate) of 0.911, a relative viability (Crizotinib; 0.03162 µM) of 0.987 and a relative viability (Crizotinib; 1 µM) of 1.09. It also gave a relative viability (Carfilzomib; 0.003162 µM) of 1.03, a relative viability (Carfilzomib; 0.01 µM) of 0.827 and a relative viability (Carfilzomib; 0.03162 µM) of 0.9. The relative viability (Carfilzomib; 0.1 µM) was 0.165.
